System: 782815-120-R-J1-PDC complex spheroid viability
Assay: Anticancer human tumor 782815-120-R-J1-PDC patient-derived colon adenocarcinoma cell line growth inhibition [RAS]
Details: for IC50: curve of first compound; for viability, T/C: stronger effect = lower value
Source text: RAS pathway inhibitors in Combinations in Complex Spheroids
A high-throughput screen of multi-cell type tumor spheroids was designed to identify active combinations of RAS pathway inhibitors and targeted small molecules. Complex spheroids include a stromal component modeled by human endothelial cells (HUVEC) and fibroblasts modeled by human mesenchymal stem cells (MSCs). The concentration ranges selected for each drug and investigational agent were based upon clinically achievable concentrations if the clinical Cmax of the agent was known.
Compounds. The drugs and investigational agents: abemaciclib (NSC768073), cobimetinib (NSC768068), divarasib (GDC6063, NSC841802), docetaxel (NSC628503), GDC-1971 (RLY-1971, NSC841576), gemcitabine (NSC613327), inavolisib (NSC800729), ipatasertib (NSC767898), KB-0742 (NSC834161), MRTX-1133 (NSC836407), osimertinib (NSC779217), RMC-4630 (NSC839698), RMC-6236 (NSC851965), RMC-6291 (NSC852671), Ro-3306 (NSC812927), sapanisertib (NSC764658), SN-38 (NSC673596), staurosporine (NSC755774), SY5609 (NSC837396), and tovorafenib (DAY101, NSC766906), were obtained from the National Cancer Institute (NCI) Developmental Therapeutics Program Chemical Repository. The FDA-approved anticancer drug set is available from the NCI Developmental Therapeutics Program. […] The stock solutions were prepared in dimethyl sulfoxide (DMSO, Sigma-Aldrich, St. Louis, MO, cat. D2650) at 800-fold the tested concentration and stored at -70 degrees C prior to their use. All drugs and investigational agents were tested over a range starting from a high concentration at or near the clinical Cmax and decreasing in half-log increments. If the clinical Cmax for an agent had not been determined, the highest concentration tested was 10 microM.
Cell Culture. All cells were maintained in an incubator at 37 degrees C and 5% CO2 with 95% humidity. The PDC lines were cultured according to standard operating procedures established by the NCI PDMR. All PDCs were thawed and cultured in Matrigel-coated flasks prepared with a working solution of 1X Ham's F-12 nutrient mix, without supplementation (Invitrogen, Waltham, MA, cat. 11765054), 100 U/mL penicillin-streptomycin (Invitrogen, cat. 15140122), and 2.5% Matrigel (Corning Inc., Corning, NY, cat. 354248) for the first three passages. The 362531-283-R-J2-PDC and 782815-120-R-J1-PDC lines were cultured in 6C/Colon 1B media, which includes advanced DMEM/F-12 (Thermo Fisher Scientific, cat. 12634028), 10 mM HEPES (Thermo Fisher Scientific, cat. 15630080), 1X GlutaMAX supplement (Thermo Fisher Scientific, cat. 35050061), 0.1 mg/mL primocin (InvivoGen, San Diego, CA, cat. ant-pm-2), 10% defined fetal bovine serum, heat inactivated (HyClone Laboratories Inc., Logan, UT, cat. SH30070.03HI), 50% L-WRN conditioned media (ATCC, cat. CRL-3276), 1.25 mM N-Acetyl-L-cysteine (Sigma-Aldrich, cat. A9165), 10 mM nicotinamide (Sigma-Aldrich, cat. N0636), 1X B-27 supplement (Thermo Fisher Scientific, cat. 17504044), 1X N-2 supplement (Thermo Fisher Scientific, cat. 17502048), 50 ng/mL human EGF (Thermo Fisher Scientific, cat. PHG0311), and 10 microM Y-27632 dihydrochloride (Tocris Bioscience, cat. 1254). The K12877-001-R-J1-PDC line was cultured in 6I media, which includes all 6C/Colon 1B media plus 10 ng/mL human FGF-10 (PeproTech, cat. 100-26), 1 ng/mL human FGF-2 (PeproTech, cat. 100-18B), 1 µM prostaglandin E2 (Tocris Bioscience, cat. 2296), […] hydrocortisone (Sigma-Aldrich, cat. H4001), and […] bovine insulin (Sigma-Aldrich, cat. I6634). The K86415-001-R-J1-PDC line was cultured in 6D media, which includes all 6C/Colon 1B media components minus the L-WRN conditioned media. The 485176-168-R4-J1-PDC was cultured in PANC media, which includes all 6C/Colon 1B media plus 100 ng/mL human FGF-10 (PeproTech, cat. 100-26), 500 nM SB-431542 (Selleckchem, cat. S1067), and 10 nM gastrin (Tocris Bioscience, cat. 3006). […]
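Note: spheroids exposed to compounds for 7 days before reading.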
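Throughout, for viability, T/C: 100% = DMSO vehicle control viability.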

## Nc1ccn(C2OC(CO)C(O)C2(F)F)c(=O)n1 (configuration not stated) + CCn1c(-c2cccnc2C(C)OC)c2c3cc(ccc31)N1CCOC(CC(NC(=O)C(C(C)C)N(C)C(=O)C3(F)CCN(C(=O)C#CC(C)(C)N(C)C)CC3)C(=O)N3CCCC(N3)C(=O)OCC(C)(C)C2)C1
Second compound 0.000949 µM
  IC50: 29.3 nM
Second compound 0.003 µM
  IC50: 42.4 nM
Second compound 0.00949 µM
  IC50: 31.5 nM
Second compound 0.03 µM
  IC50: 38 nM
Second compound 0.0949 µM
  IC50: 50 nM
Second compound 0.3 µM
  IC50: 47.6 nM
Second compound 0.000949 µM, first compound 0.00316 µM
  viability, T/C: 89.4%
Second compound 0.000949 µM, first compound 0.01 µM
  viability, T/C: 64.7%
Second compound 0.000949 µM, first compound 0.0316 µM
  viability, T/C: 50.6%
Second compound 0.000949 µM, first compound 0.1 µM
  viability, T/C: 37.2%
Second compound 0.000949 µM, first compound 0.316 µM
  viability, T/C: 23.5%
Second compound 0.000949 µM, first compound 1 µM
  viability, T/C: 23.5%
Second compound 0.003 µM, first compound 0.00316 µM
  viability, T/C: 95%
Second compound 0.003 µM, first compound 0.01 µM
  viability, T/C: 71.3%
Second compound 0.003 µM, first compound 0.0316 µM
  viability, T/C: 59.3%
Second compound 0.003 µM, first compound 0.1 µM
  viability, T/C: 34.6%
Second compound 0.003 µM, first compound 0.316 µM
  viability, T/C: 27.3%
Second compound 0.003 µM, first compound 1 µM
  viability, T/C: 24.5%
Second compound 0.00949 µM, first compound 0.00316 µM
  viability, T/C: 96.2%
Second compound 0.00949 µM, first compound 0.01 µM
  viability, T/C: 71.8%
Second compound 0.00949 µM, first compound 0.0316 µM
  viability, T/C: 50.8%
Second compound 0.00949 µM, first compound 0.1 µM
  viability, T/C: 34.7%
Second compound 0.00949 µM, first compound 0.316 µM
  viability, T/C: 29.1%
Second compound 0.00949 µM, first compound 1 µM
  viability, T/C: 25.7%
Second compound 0.03 µM, first compound 0.00316 µM
  viability, T/C: 85.4%
Second compound 0.03 µM, first compound 0.01 µM
  viability, T/C: 75.7%
Second compound 0.03 µM, first compound 0.0316 µM
  viability, T/C: 53.2%
Second compound 0.03 µM, first compound 0.1 µM
  viability, T/C: 33.6%
Second compound 0.03 µM, first compound 0.316 µM
  viability, T/C: 27.2%
Second compound 0.03 µM, first compound 1 µM
  viability, T/C: 25.7%
Second compound 0.0949 µM, first compound 0.00316 µM
  viability, T/C: 83.6%
Second compound 0.0949 µM, first compound 0.01 µM
  viability, T/C: 71.8%
Second compound 0.0949 µM, first compound 0.0316 µM
  viability, T/C: 57.9%
Second compound 0.0949 µM, first compound 0.1 µM
  viability, T/C: 38.7%
Second compound 0.0949 µM, first compound 0.316 µM
  viability, T/C: 28.1%
Second compound 0.0949 µM, first compound 1 µM
  viability, T/C: 20.1%
Second compound 0.3 µM, first compound 0.00316 µM
  viability, T/C: 85.3%
Second compound 0.3 µM, first compound 0.01 µM
  viability, T/C: 71.2%
Second compound 0.3 µM, first compound 0.0316 µM
  viability, T/C: 58.4%
Second compound 0.3 µM, first compound 0.1 µM
  viability, T/C: 38.5%
Second compound 0.3 µM, first compound 0.316 µM
  viability, T/C: 24.2%
Second compound 0.3 µM, first compound 1 µM
  viability, T/C: 22.1%

From PubChem BioAssay AID2060887 (Molecular Pharmacology Branch, DTP, NCI, 2025)
